Values quoted from earlier work in US8409558B2, “Method for treatment of onychomycosis” (priority 2005, dated 2013).

System: onychomycosis (nail fungus)

## CN(C/C=C/C#CC(C)(C)C)Cc1cccc2ccccc12 [Lamisil, terbinafine]
Continuous oral therapy
  complete cure: 41%
  mycological cure: 71%
Oral therapy, Warshaw et al. JAAD October 2005
  cure of all nails (complete cure of all nails after 1 yr; % effective): 25%
